Legend:
Spt5 activities = test: Combined effects on the various Spt5 activities (summary of Examples 1-4); format: cell-based
[1] = molecular target: T1, Spt5-Pol II interaction (NGN and KOW 1&2 of Spt5, coiled-coil domain of Rpb1) (Homo sapiens, UniProt P24928); test: Split-Renilla luciferase (RL) complementation assay of Spt5-Pol II interaction; format: binding
T1 construct: the region spanning NGN and KOW 1&2 of Spt5 and the coiled-coil (CC) domain of Rpb1; the coiled-coil (CC) domain of Rpb1, the large subunit of Pol II, were fused to N-RL and C-RL, respectively; made in house; host or cells: E. coli (pRSFDuet double expression plasmid); bacterial cell lysate used unpurified
T1 sequence (P24928 8-370 limits assumed): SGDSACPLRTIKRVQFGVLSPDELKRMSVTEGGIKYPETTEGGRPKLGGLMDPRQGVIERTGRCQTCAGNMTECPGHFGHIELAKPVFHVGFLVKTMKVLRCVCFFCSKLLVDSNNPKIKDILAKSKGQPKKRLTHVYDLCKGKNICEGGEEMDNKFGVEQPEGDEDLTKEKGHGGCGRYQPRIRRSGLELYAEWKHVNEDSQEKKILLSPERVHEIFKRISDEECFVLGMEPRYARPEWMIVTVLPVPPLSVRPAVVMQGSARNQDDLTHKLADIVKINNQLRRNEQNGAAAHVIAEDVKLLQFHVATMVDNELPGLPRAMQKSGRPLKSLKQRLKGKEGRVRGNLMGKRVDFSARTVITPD
Excerpt: Plasmid construction—The mammalian expression plasmids RSV-AC/AN Renilla luciferase (pRL-AC/AN), encoding the N-terminal amino acid residues 1-229 or the C-terminus 230-311 of the Renilla luciferase (RL) were previously described in Ashkenazi et al., 2016; and Ashkenazi et al., 2017. The split-Renilla luciferase fusion plasmids were constructed by two-step PCR using the pRL-AC or pRL-AN as backbones and plasmids encoding the region spanning NGN and KOW 1&2 of human Spt5 (SEQ ID NOs: 1-3) or the coiled-coil (CC) domain of human Rpb1 (SEQ ID NOs: 4-6), respectively, as insert sources. For bacterial expression of the split-RL fusion proteins the double expression plasmid pRSFDuet was used. All constructs were verified by sequencing.
High-throughput drug screening (HTS)—About 100,000 compounds [from MEGxp library: Pure natural compounds from plants (see Table 1 hereinbelow) were screened for their effect on Spt5-Pol II interaction (a schematic representation of the assay is shown in FIG. 1B). […] Compounds that diminished the luminescence activity by >30% were subjected for an additional screen with a bacterial lysate expressing recombinant full-length RL (diluted 1: 500 in phosphate buffer) that served as a control for false-positive compounds that inhibit the RL enzymatic activity itself (Ashkenazi et al., 2017). […]

[2] = test system: replication-dependent histone genes; test: Histone gene levels after 24 hours, cDNA with random hexamers, qPCR; format: cell-based, human
Procedure: A schematic illustration of a histone gene structure is shown on the top. For polyA+ RNA analysis, cDNA was prepared with a poly-dT oligonucleotide. In each analysis the levels were normalized to GAPDH; and the bars present the mean of 3±SEM independent experiments. * P<0.05 relative to DMSO (vehicle control). […] The data represent the means±SEMs of 3 independent experiments. The asterisks denote statistically significant differences relative to DMSO; according to Student's t tests (typically one-tailed, paired): *p<0.05; **p<0.01; ***p<0.005.
Since the RNA-seq following treatment with SPI-21 detects only polyadenylated transcripts and the treatment was effected for 2 hours, during which only a fraction of cells is in S-phase, an effect on histone genes was not found. Thus, to investigate further the regulation of histone genes by Spt5 using the identified SPIs, cells were treated for 24 hours with SPI-21 or SPI-18, to allow all cells to pass S-phase at least once. Following, mRNA was extracted and cDNA was prepared using random hexamers and the levels of 4 histone genes were determined. […] To this end, cDNA prepared by random hexamer and Poly-T the ratio between total and poly-A tailed histone genes was determined. […]

Compound | classification by effect on the various Spt5 activities, in words (Spt5 activities) | IC50 [1] [µM] | expression of the selected histone genes [2]
COc1ccc(C=CC(=O)c2cc(O)ccc2O)cc1 [SPI-21] | affect all the tested Spt5 activities | 25 | diminished expression of the selected histone genes
Nc1ccccc1SC(CC(=O)c1cccs1)c1cccs1 (stereo not drawn) [SPI-18] | inhibited mainly the positive activity of Spt5 with little or no effect on proximal promoter pausing | 33 | diminished expression of the selected histone genes

Reference: patent publication US12661353B2, “SPT5 inhibitors and uses thereof” (Yeda Research and Development Co. Ltd., priority 2020, dated 2026)
